Data as given in US20180003695A1, “METHOD FOR QUANTITATIVE MEASUREMENT OF GASTRIC ACIDITY USING 13C CARBONATE SALT” (priority 2010, published 2018).

Legend:
[1] = tested on: platelet aggregation by ADP stimulation; settings: clopidogrel 10 mg/kg oral, ketoconazole 50 mg/kg oral 30 min before, blood 2 hours after clopidogrel
Excerpt: Fasted rats (7 weeks old, female, SD rats) were used as experimental animals.

gastric acid secretion = experiment: Correlation between enzyme activity of CYP2C19 and CYP3A4 and effect of omeprazole, 13C-CaCO3 expiration test; format: in vivo, rats; settings: ketoconazole 50 mg/kg oral 30 min before omeprazole 3 mg/kg i.v.; 13C-CaCO3 100 μmol/kg oral 2 hours after omeprazole
Procedure: Fasted rats (7 weeks old, female, SD rats) were used as experimental animals. The rats were divided into an omeprazole administration group (n=3), a ketoconazole pre-treatment group (n=3), and a control group (n=3).
Expired air was then collected. […] Expired air was then collected.
The above expired air was used as test samples, and Δ^13C (‰) was measured with a mass spectrometer for expired air analysis (ABCA: manufactured by SerCon) from the concentration of ^13CO2 excreted in the expired air.

| Structure (SMILES) | platelet aggregation inhibitory action of clopidogrel under ketoconazole pre-treatment [1] | Δ13C (‰) in the expired air after 13C-CaCO3, effect of ketoconazole pre-treatment before omeprazole (gastric acid secretion) |
| --- | --- | --- |
| COC(=O)[C@H](c1ccccc1Cl)N1CCc2sccc2C1 [clopidogrel] | reduced | – |
| CC(=O)N1CCN(c2ccc(OCC3COC(Cn4ccnc4)(c4ccc(Cl)cc4Cl)O3)cc2)CC1 (centres unmarked) [ketoconazole] | – | decreased |
